Results: US20250249051A1, “MICROBIOME COMPOSITION FOR IMPROVING MUSCLE STRENGTH USING HEAT-TREATED FERMENTED CULTURE COMPLEX OF LACTIPLANTIBACILLUS PLANTARUM KM2” (KOOKMINBIO, CORP., priority 2024, published 2025)
Marks after values point to notes of the source that are not given here.

Columns and labels:
C57BL/6J mice [1] = assay: Body weight and body composition (DEXA) in dexamethasone-induced muscular atrophy mice; assay type: in vivo; conditions: week 7, oral; KLP-KM2 900 and 1800 mg/kg, OXM 50 mg/kg; vs DEX group
Method: (§1) 7-week-old male C57BL/6J mice purchased from OrientBio were used as experimental animals. The environment of an animal breeding room was controlled at temperature of 21±1° C. with relative humidity of 40˜60% and light/dark cycles of 12 hours/day, and feed and drinking water were allowed to be consumed freely. This test was approved by the Institutional Animal Care and Use Committee in Kookmin University (KMU-2023-05) and carried out in accordance with the standard operating instructions. […] Feed ingestion amount and body weight were measured once every two weeks.
Dual energy X-ray absorptiometry (DEXA; Medikors, Seongnam, Korea) was used at week 7 before the sacrifice of experimental animals to measure the body composition of mice, followed by analysis on the changes in muscle mass relative to the body weight.

C57BL/6J mice [2] = assay: Biochemical analysis of serum in dexamethasone-induced muscular atrophy mice; assay type: in vivo; conditions: oxymetholone 50 mg/kg oral 8 weeks, DEX mice
Method: as §1
After sacrificing the mice, blood was drawn from the heart and immediately centrifuged (3,000×g, 10 min, 4° C.) to separate the plasma. Creatine phosphokinase (CPK), lactate dehydrogenase (LDH), aspartate aminotransferase (AST), alanine aminotransferase (ALT), and blood urea nitrogen (BUN) were measured using a chemical analyzer (Fuji DRI-CHEM 3500i, Fuji Photo Film, Ltd., Tokyo, Japan).

intestinal microflora = assay: Intestinal microflora analysis in animal model (shotgun metagenome sequencing); assay type: in vivo, mice; conditions: genus level, compared to the DEX group
Method: as §1
To identify the effect of the sample on the intestinal microbiota of the animal model, the appendix was removed after animal sacrifice, DNA was extracted, and analysis was performed using Shotgun metagenome sequencing. The extracted DNA was subjected to adapter ligation using the Truseq Nano DNA prep kit for sequencing, and then 8 cycles of PCR were performed to create a library. […] Using Trimmomatic v0.39 (AM Bolger, M Lohse, B Usadel, 2014) for raw reads, removal of low-quality reads and adapters was followed, and in order to eliminate PhiX sequences added during sequencing, trimmed reads were aligned to the PhiX reference genome (NC_001422.1) using BWA v0.7.17-r1188 (Li, Heng, 2013) and then removed with SAMtools v1.15.1 (Li, Heng, et al., 2009). […]

C[C@]12C/C(=C/O)C(=O)C[C@@H]1CC[C@@H]1[C@@H]2CC[C@@]2(C)[C@H]1CC[C@]2(C)O [OXM, oxymetholone]
muscle mass to the total body weight (DEXA) (C57BL/6J mice [1]): relatively significant increase compared to the DEX group
ALT (C57BL/6J mice [2]): 43.75 ± 7.96 ^a U/L
AST (C57BL/6J mice [2]): 58.88 ± 11.73 ^a U/L
BUN (C57BL/6J mice [2]): 24.74 ± 1.47 ^a mg/dL
CPK (C57BL/6J mice [2]): 99.13 ± 35.13 ^b U/L
LDH (C57BL/6J mice [2]): 211.38 ± 46.99 ^b U/L
proportion of Akkermansia (intestinal microflora): significantly reduced
